Reference: article PMC8009417, “Selective killing of homologous recombination-deficient cancer cell lines by inhibitors of the RPA:RAD52 protein-protein interaction” (PLoS ONE, 2021)

Legend:
[1] = tested on: BRCA1-deficient UWB1.289 ovarian cancer cells (BRCA1-); test: Cell viability assay (PrestoBlue, 72 h), UWB1.289; type: cell-based; conditions: Homo sapiens, UWB1289, estimated from the graphs
Text: (§1) BRCA1-deficient UWB1.289 cells corrected with wild-type BRCA1 gene (BRCA1+; closed triangle) and parental BRCA1-deficient UWB1.289 (BRCA1-; closed circle). Two PARPi-resistant cell lines derived from UWB1.289, UWB1.289.SYr12 (closed diamond) and UWB1.SYr13 (X), were also examined.
(§2) UWB1.289 (a gift from Dr. Lee Zou, Harvard Medical School, Boston, MA) were derived from a serous ovarian carcinoma with a germline BRCA1 mutation and a deletion of the wild-type allele. […] Two PARP-resistant cell lines, SYr12 and SYr13, were derived from the UWB1.289. The Mammary Epithelial growth media, along with SupplementMix solution for UWB1 cell lines, were obtained from PromoCell GmbH and mixed as described.
(§3) Cells were seeded 5 x 10^3 cells per well in 96-well plates in a 90 μL volume per well one day before treatment. Cells in 96-well plates were incubated with increasing concentrations of the compound or vehicle control (1% DMSO) for 72 hours. Each treatment plate contained nine concentrations of a compound in sextuplicate. Growth inhibition was determined using PrestoBlue reagent (Life Technologies, #A13261). Fluorescent measurements were taken using a Spectramax M5 plate reader (MDS). To assess cells’ replication in the absence of compounds as a control, six wells on each plate were treated with vehicle to be read in triplicate at the initial treatment day (T0) and at 72-hour read (T100).

[2] = tested on: BRCA2-revertant PE01 C4-2 cells (BRCA2+); test: Cell viability assay (PrestoBlue, 72 h), PE01 C4-2; conditions: Homo sapiens, C4-2, 72 h, read-out: EC50, cell viability
[3] = tested on: GFP-RAD52 foci in PE01 C4-2 cells; test: Radiation-induced GFP-RAD52 foci formation; type: cell-based, human; conditions: 3 nM pre-treatment, 15 Gy X-ray
Description: Cells without mitoxantrone and radiation (labeled C) were controls. The average percent of cells with foci (more than 5 foci per cell) are graphed from three independent experiments. More than 30 cells per experiment were analyzed. Error bars represent standard deviation.
Each cell line was seeded on a coverslip at 10^5 cells per well in a 24-well plate. After the 24 hour incubation, the cells were pre-incubated with mitoxantrone for 2 hours, then irradiated with X-ray at 15 Gy with the RS-2000 Irradiator. After 2~ 8 hours of the irradiation, the cells were fixed in 10% formaldehyde solution at room temperature for 30 min, followed by 10 min incubation in PBS containing 0.5% Triton X-100. After staining with 1 μg/ml H1399 Hoechst dye solution, each coverslip was mounted on a slide. GFP proteins were detected with a Zeiss 710 Confocal Laser Scanning Microscope, and images were processed using Zeiss ZEN software. A cell contained more than 5 foci was considered as positive.

[4] = tested on: PARPi-resistant UWB1.SYr13 cells; test: Cell viability assay (PrestoBlue, 72 h), UWB1.SYr13; type: cell-based; conditions: Homo sapiens, estimated from the graphs
Text: as §1, §2, §3

[5] = tested on: RAD52 protein level; test: Simple Western of RAD52 protein level after treatment; type: cell-based, human; conditions: 72 h at doses near EC50
Description: Fig 6 The effect of mitoxantrone treatment on RAD52 levels and DNA damage. […] Data and ANOVA statistical analyses are described in the material and methods section. Significance statistics are shown with single, double, or triple asterisks representing P<0.05, P<0.005, or P<0.0005, respectively.
For western analysis, each cell line was grown and treated as described above. Protein levels were measured in lysates by size separation with a ProteinSimple PeggySue instrument following the manufacturer’s recommendations. Lysates were prepared using the NanoPro Cell Lysis Kit with Bicine/CHAPS (ProteinSimple CBS403) at 0.75 mg/mL concentration when mixed with master mix (containing SDS, DTT and fluorescent molecular weight markers; ProteinSimple PS-FL01-8) and heated for 5 min at 95°C. Electrophoretic nanocapillary size separation of proteins was performed using default settings. After separation, UV light cross-linked proteins to the capillary wall. Capillaries were then washed and incubated with primary antibodies, washed, and incubated with anti-rabbit secondary antibody conjugated with HRP (ProteinSimple DM-001). Finally, luminol and peroxide were applied to generate chemoluminescence which was imaged by a CCD camera. Primary antibody concentrations were optimized and were diluted as follows: Abcam anti-RAD52 antibody (ab18263, diluted 1:25), R&D Systems Human Phospho-histone H2AX (S139) antibody (AF2288, diluted 1:100), and Cell Signalling Technology Pan-Actin antibody (#4968, diluted 1:2500).
The Simple western data were processed and analyzed with ProteinSimple Compass software. Peak areas were calculated using dropped lines. Each lysate was analyzed for RAD52 and γH2AX levels three times and for Actin two times (see S2 Fig). Replicate peak areas for RAD52 and γH2AX were averaged, divided by the average Actin peak area of that sample, multiplied by 100 and graphed using SigmaPlot 7.0.

[6] = tested on: PARPi-resistant UWB1.289.SYr12 cells; test: Cell viability assay (PrestoBlue, 72 h), UWB1.289.SYr12; type: cell-based; conditions: Homo sapiens, estimated from the graphs
Text: as §1, §2, §3

[7] = tested on: HCC1937 cells corrected with wild-type BRCA1 gene (BRCA1+); test: Cell viability assay (PrestoBlue, 72 h), HCC1937+BRCA1; type: cell-based; conditions: Homo sapiens, estimated from the graphs
Description: Fig 2 BRCA1-deficient HCC1937 breast cancer cell line survival assay. BRCA1-deficient HCC1937 cells corrected with wild-type BRCA1 gene (BRCA1+; closed triangle), and with an empty vector (BRCA1-; closed circle) were examined. For each experiment (Figs 2–4), cell lines were treated with nine concentrations of (A) quinacrine, (B) mitoxantrone, and (C) doxorubicin in 96-well culture plates at 5x10^3 cell/well density. Each treatment point was made in sextuplicate. Treated cells were incubated for 72 hours at 37°C before assessing cell viability using PrestoBlue. Data were normalized to vehicle control. The experiment was repeated three times. Error bars indicate the standard deviation.
The HCC1937 cell line (a gift from Dr. Simon Powell Memorial Sloan Kettering (MSK), New York) was derived from a mammary gland primary ductal carcinoma at the early onset of a tumor. This TNBC patient carried a germline mutation in BRCA1, resulting in carboxy-terminal truncated protein and loss of the second BRCA1 allele. BRCA1-restored and empty vector cell lines were also obtained by transfection of a vector containing a full-length human BRCA1 cDNA or an empty vector, respectively. The HCC1937 cell lines were cultured as described.
as §3

[8] = tested on: UWB1.289 cells corrected with wild-type BRCA1 gene (BRCA1+); test: Cell viability assay (PrestoBlue, 72 h), UWB1.289+BRCA1; type: cell-based; conditions: Homo sapiens, UWB1289, estimated from the graphs
Text: as §1, §2, §3

O=C1c2c(O)ccc(O)c2C(=O)c2c(NCCNCCO)ccc(NCCNCCO)c21 [Mitoxantrone, mitoxantrone]
EC50 [1]: 200 nM
EC50 [2]: 400 nM
Effect on radiation-induced RAD52 foci formation [3]: inhibited the radiation-induced RAD52 foci formation
EC50 [4]: 2500 nM
Change of RAD52 level with treatment ([5]; HCC1937 cells): the level of RAD52 increased
Change of RAD52 level with treatment ([5]; PE01 cells): dramatic reduction in RAD52 protein
Change of RAD52 level with treatment ([5]; UWB1 cells): the level of RAD52 decreased
EC50 [6]: 2400 nM
EC50 [7]: > 5000 nM
EC50 [8]: 3000 nM
